# According to US7049311B1, “Pyrrolbenzodiazepines” (Spirogen Limited, priority 1998, dated 2006):
# How the values were obtained:
# [1] = system: CH1; experiment: Ovarian carcinoma cytotoxicity assay; format: cell-based; conditions: Homo sapiens, CH1, 96 h, read-out: IC50 CH1
# Method in brief: (§1)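 Cells attached overnight, then read 96 hours later by sulphorhodamine B staining of TCA-fixed cells, with absorbance at 540 nm. IC50 taken from concentration versus % absorbance relative to untreated wells; cisR lines are cisplatin-resistant.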
# [2] = system: CH1cisR; experiment: Ovarian carcinoma cytotoxicity assay; format: cell-based; conditions: Homo sapiens, CH1cisR, 96 h, read-out: IC50 CH1cisR
# Method in brief: as §1
structure (smiles),measurement,setting,value
C=C1C[C@H]2C=Nc3cc(OCCCOc4cc5c(cc4OC)C(=O)N4CC(=C)C[C@H]4C=N5)c(OC)cc3C(=O)N2C1 [UP2001 (80)],IC50,[1],0.12 nM
same,IC50,[2],0.6 nM
